Earlier results in patent US20190021385A1, “ORALLY DISSOLVABLE COMPOSITIONS FOR NUTRITION SUPPLEMENTATION” (Exeltis USA, Inc., priority 2017, published 2019).

Settings: intake of about 1000 IU per day, all adults; Bischoff-Ferrari 2008

Structure (SMILES): C=C1CC[C@H](O)C/C1=C/C=C1\CCC[C@]2(C)[C@@H]([C@H](C)CCCC(C)C)CC[C@@H]12 [vitamin D3, cholecalciferol]
- share of the population brought up to the 30 ng/ml serum range for 25-hydroxyvitamin D: at least 50%
